In ChEMBL document CHEMBL1123599, “Diketopiperazines as a new class of platelet-activating factor inhibitors” (J Med Chem, 1987):

Organism: Oryctolagus cuniculus
Assay: Inhibition of rabbit platelet aggregation induced by PAF (Platelet activating factor)
Type: functional

SMILES	IC50 [nM]
CSCC[C@H]1NC(=O)[C@@H]([C@@H](C)c2cn(C)c3ccccc23)NC1=O	3600
CSCC[C@H]1NC(=O)[C@@H]([C@H](C)c2cccc3ccccc23)NC1=O	180
CSCC[C@H]1NC(=O)[C@@H]([C@H](C)c2cn(C)c3ccccc23)NC1=O	700
CSCC[C@H]1NC(=O)[C@@H]([C@@H](C)c2cccc3ccccc23)NC1=O	1900
CSCCC1NC(=O)C(Cc2cn(C)c3ccccc23)NC1=O (stereo unspecified)	2300
CSC[C@@H]1N=C(C2=C(O)C=CC2)[C@H]([C@@H](C)[C@@H]2C(=O)N(C)c3ccccc32)NC1=O	370
COc1cc([C@H]2CC[C@H](c3cc(OC)c(OC)c(OC)c3)O2)cc(OC)c1OC	320

More lines, now with the values ahead:

IC50 [nM]	SMILES
7900	CSC[C@H]1NC(=O)[C@@H](Cc2cn(C)c3ccccc23)NC1=O
140000	CSC[C@H]1NC(=O)[C@H](Cc2cn(C)c3ccccc23)NC1=O
36000	CSC[C@@H]1NC(=O)[C@@H](Cc2cn(C)c3ccccc23)NC1=O
250000	CSC[C@@H]1NC(=O)[C@H](Cc2cn(C)c3ccccc23)NC1=O
